Experimental data from patent US9302999B2, “Substituted triazoles as herbicides” (E. I. DU PONT DE NEMOURS AND COMPANY, priority 2012, dated 2016).
Like-named read-outs stand apart in the source and are kept apart here.

Assays:
Type in all cases: in vivo
[1] = tested on: foxtail, giant (giant foxtail, Setaria faberii); experiment: Test A pre-/postemergence: foxtail, giant; conditions: Setaria faberi, 240 h; for pest or weed control at 125 g/ha: 125 g ai/ha; for pest or weed control at 500 g/ha: 500 g ai/ha
Procedure, shortened: (§1)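 Seeds were sown in loam/sand blend and sprayed preemergence (directed soil spray) and, simultaneously, postemergence at 2–10 cm, one- to two-leaf stage, using compounds in non-phytotoxic solvent with surfactant. After ~10 days in greenhouse, injury was rated visually versus untreated controls, 0 (no effect) to 100 (complete control).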

[2] = tested on: velvetleaf (Abutilon theophrasti); experiment: Test A pre-/postemergence: velvetleaf; conditions: Abutilon theophrasti, 240 h; for pest or weed control at 125 g/ha: 125 g ai/ha; for pest or weed control at 500 g/ha: 500 g ai/ha
Procedure, shortened: as §1

[3] = tested on: wheat (Triticum aestivum); experiment: Test A pre-/postemergence: wheat; conditions: Triticum aestivum, 240 h; for plant injury at 125 g/ha: 125 g ai/ha; for plant injury at 500 g/ha: 500 g ai/ha
Procedure, shortened: as §1

corn (Zea mays) = experiment: Test A pre-/postemergence: corn; conditions: Zea mays, 240 h; for plant injury at 125 g/ha / plant injury at 500 g/ha: post-emergence, Postemergence, read-out: Corn plant response rating; for plant injury at 125 g/ha / Corn plant response rating (crop injury, 0 = no effect, 100 = complete kill) at 125 g/ha: 125 g ai/ha; for plant injury at 125 g/ha / Corn plant response rating (crop injury, 0 = no effect, 100 = complete kill) at 500 g/ha: 0 to 100 scale, 0 is no effect, 100 is complete control; for plant injury at 500 g/ha / Corn plant response rating (crop injury, 0 = no effect, 100 = complete kill) at 500 g/ha: 500 g ai/ha; for plant injury at 500 g/ha: visual rating on 0 to 100 scale (0 no effect, 100 complete control), approximately ten days; for Corn plant response rating (crop injury, 0 = no effect, 100 = complete kill) at 125 g/ha / Corn plant response rating (crop injury, 0 = no effect, 100 = complete kill) at 500 g/ha: pre-emergence, Preemergence; for Corn plant response rating (crop injury, 0 = no effect, 100 = complete kill) at 125 g/ha: 0 to 100 scale (0 no effect, 100 complete control)
Procedure, shortened: as §1

[4] = tested on: winter wheat (Triticum aestivum); experiment: Test C pre-/postemergence: winter wheat
Text: Seeds of plant species selected from blackgrass (Alopecurus myosuroides), bromegrass, downy (downy bromegrass, Bromus tectorum), foxtail, green (green foxtail, Setaria viridis), ryegrass, Italian (Italian ryegrass, Lolium multiflorum), winter wheat (Triticum aestivum), wild oat (Avena fatua), galium (catchweed bedstraw, Galium aparine), bermudagrass (Cynodon dactylon), surinam grass (Brachiaria decumbens), cocklebur (common cocklebur, Xanthium strumarium), corn (Zea mays), large crabgrass (Digitaria sanguinalis), woolly cupgrass (Eriochloa villosa), foxtail, giant (giant foxtail, Setaria faberii), goosegrass (Eleusine indica), johnsongrass (Sorghum halepense), kochia (Kochia scoparia), lambsquarters (Chenopodium album), morningglory (Ipomoea coccinea), nightshade (eastern black nightshade, Solanum ptycanthum), nutsedge, yellow (yellow nutsedge, Cyperus esculentus), pigweed (Amaranthus retroflexus), ragweed (common ragweed, Ambrosia elation), soybean (Glycine max), common (oilseed) sunflower (Helianthus annuus), Russian thistle (Salsola kali) and velvetleaf (Abutilon theophrasti) were planted into a blend of loam soil and sand and treated preemergence with test chemicals formulated in a non-phytotoxic solvent mixture which included a surfactant.
(§2) At the same time, plants selected from these crop and weed species and also barley (winter barley, Hordeum vulgare), canarygrass (Phalaris minor), chickweed (common chickweed, Stellaria media) windgrass (Apera spica-venti) and deadnettle (henbit deadnettle, Lamium amplexicaule) were planted in pots containing Redi-Earth® planting medium (Scotts Company, 14111 Scottslawn Road, Marysville, Ohio 43041) comprising spaghnum peat moss, vermiculite, wetting agent and starter nutrients and treated with postemergence applications of test chemicals formulated in the same manner. Plants ranged in height from 2 to 18 cm (1- to 4-leaf stage) for postemergence treatments.
(§3) Treated plants and controls were maintained in a greenhouse for 13 to 15 days, after which time all species were compared to controls and visually evaluated. Plant response ratings, summarized in Table C, are based on a scale of 0 to 100 where 0 is no effect and 100 is complete control. A dash (-) response means no test result.

[5] = tested on: nutsedge, yellow (yellow nutsedge, Cyperus esculentus); experiment: Test C pre-/postemergence: nutsedge, yellow
Procedure, shortened: (§4)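 Preemergence on seeds in loam/sand, postemergence on 2–18 cm (1–4-leaf) plants in peat-based medium; compounds in non-phytotoxic solvent with surfactant. After 13–15 days in greenhouse, visual rating versus controls, 0 (no effect) to 100 (complete control).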

[6] = tested on: pigweed (Amaranthus retroflexus); experiment: Test C pre-/postemergence: pigweed
Procedure, shortened: as §4

[7] = tested on: chickweed (common chickweed, Stellaria media); experiment: Test C postemergence: chickweed
Text: as §2, §3

[8] = post-emergence, Postemergence, 0 to 100 scale, 0 is no effect, 100 is complete control, read-out: Foxtail, Giant plant response rating
[9] = post-emergence, Postemergence, visual rating on 0 to 100 scale (0 no effect, 100 complete control), approximately ten days, read-out: Foxtail, Giant plant response rating
[10] = pre-emergence, Preemergence, 0 to 100 scale (0 no effect, 100 complete control), read-out: Plant response rating, Foxtail, Giant
[11] = pre-emergence, Preemergence, 0 to 100 scale, 0 is no effect, 100 is complete control, read-out: Plant response rating, Foxtail, Giant
[12] = post-emergence, Postemergence, 0 to 100 scale, 0 is no effect, 100 is complete control, read-out: Velvetleaf plant response rating
[13] = post-emergence, Postemergence, visual rating on 0 to 100 scale (0 no effect, 100 complete control), approximately ten days, read-out: Velvetleaf plant response rating
[14] = pre-emergence, Preemergence, 0 to 100 scale (0 no effect, 100 complete control), read-out: Plant response rating, Velvetleaf
[15] = pre-emergence, Preemergence, 0 to 100 scale, 0 is no effect, 100 is complete control, read-out: Plant response rating, Velvetleaf
[16] = post-emergence, Postemergence, 0 to 100 scale, 0 is no effect, 100 is complete control, read-out: Wheat plant response rating
[17] = post-emergence, Postemergence, visual rating on 0 to 100 scale (0 no effect, 100 complete control), approximately ten days, read-out: Wheat plant response rating
[18] = pre-emergence, Preemergence, 0 to 100 scale (0 no effect, 100 complete control), read-out: Plant response rating, Wheat
[19] = pre-emergence, Preemergence, 0 to 100 scale, 0 is no effect, 100 is complete control, read-out: Plant response rating, Wheat
[20] = Postemergence, 31 g ai/ha, scale 0 to 100 (0 no effect, 100 complete control)
[21] = Postemergence, 62 g ai/ha, scale 0 to 100 (0 no effect, 100 complete control)
[22] = Postemergence, 125 g ai/ha, scale 0 to 100, 0 no effect, 100 complete control
[23] = Postemergence, 250 g ai/ha, scale 0 to 100
[24] = Preemergence, 31 g ai/ha, scale of 0 to 100, 0 is no effect, 100 is complete control
[25] = Preemergence, 62 g ai/ha, scale of 0 to 100, 0 is no effect, 100 is complete control
[26] = Preemergence, 125 g ai/ha, scale 0 to 100, 0 no effect, 100 complete control
[27] = Preemergence, 250 g ai/ha, scale 0 to 100, 0 no effect, 100 complete control
[28] = 31 g ai/ha, scale 0 to 100 (0 no effect, 100 complete control)
[29] = 62 g ai/ha, scale 0 to 100 (0 no effect, 100 complete control)
[30] = 125 g ai/ha, scale 0 to 100, 0 no effect, 100 complete control
[31] = Postemergence, 16 g ai/ha, scale 0 to 100, 0 no effect, 100 complete control
[32] = Preemergence, 16 g ai/ha, scale 0 (no effect) to 100 (complete control)

For `FC(F)(F)COc1nn(-c2ccc(C(F)(F)F)cc2)nc1Cc1ccnc(C(F)(F)F)c1` [Compound 14, 4-[[5-(2,2,2-trifluoroethoxy)-2-[4-(trifluoromethyl)phenyl]-2H-1,2,3-triazol-4-yl]methyl]-2-(trifluoromethyl)pyridine], the pest or weed control at 125 g/ha [1, 8] was 80%, the pest or weed control at 500 g/ha [1, 9] was 90% and the pest or weed control at 125 g/ha [1, 10] was 100%. For the same molecule, the pest or weed control at 500 g/ha [1, 11] was 100%, the pest or weed control at 125 g/ha [2, 12] was 100% and the pest or weed control at 500 g/ha [2, 13] was 100%. The pest or weed control at 125 g/ha [2, 14] was 70%, the pest or weed control at 500 g/ha [2, 15] was 90% and the plant injury at 125 g/ha [3, 16] was 30%. It also gave a plant injury at 500 g/ha [3, 17] of 50%, a plant injury at 125 g/ha [3, 18] of 30% and a plant injury at 500 g/ha [3, 19] of 50%. For the same molecule, the plant injury at 125 g/ha (corn (Zea mays)) was 20%, the plant injury at 500 g/ha (corn (Zea mays)) was 40% and the Corn plant response rating (crop injury, 0 = no effect, 100 = complete kill) at 125 g/ha (corn (Zea mays)) was 20%. The Corn plant response rating (crop injury, 0 = no effect, 100 = complete kill) at 500 g/ha (corn (Zea mays)) was 30%, the “Plant response rating, Wheat” value [4, 20] was 30 and the “Plant response rating, Wheat” value [4, 21] was 35. The “Plant response rating, Wheat” value [4, 22] was 40, the “Plant response rating, Wheat” value [4, 23] was 45 and the “Plant response rating, Wheat” value [4, 24] was 0. The “Plant response rating, Wheat” value [4, 25] was 15, the “Plant response rating, Wheat” value [4, 26] was 35 and the “Plant response rating, Wheat” value [4, 27] was 45. For the same molecule, the “Plant response rating, Nutsedge, Yellow” value [5, 20] was 0, the “Plant response rating, Nutsedge, Yellow” value [5, 21] was 0 and the “Plant response rating, Nutsedge, Yellow” value [5, 22] was 0. The “Plant response rating, Nutsedge, Yellow” value [5, 23] was 0, the “Plant response rating, Nutsedge, Yellow” value [5, 24] was 0 and the “Plant response rating, Nutsedge, Yellow” value [5, 25] was 0. The “Plant response rating, Nutsedge, Yellow” value [5, 26] was 0, the “Plant response rating, Nutsedge, Yellow” value [5, 27] was 0 and the “Plant response rating, Pigweed” value [6, 20] was 45. For the same molecule, the “Plant response rating, Pigweed” value [6, 21] was 60, the “Plant response rating, Pigweed” value [6, 22] was 80 and the “Plant response rating, Pigweed” value [6, 23] was 85. The “Plant response rating, Pigweed” value [6, 24] was 100, the “Plant response rating, Pigweed” value [6, 25] was 100 and the “Plant response rating, Pigweed” value [6, 26] was 100. For the same molecule, the “Plant response rating, Pigweed” value [6, 27] was 100, the “Plant response rating, Chickweed” value [7, 28] was 60 and the “Plant response rating, Chickweed” value [7, 29] was 75. For the same molecule, the “Plant response rating, Chickweed” value [7, 30] was 75 and the “Plant response rating, Chickweed” value ([7]; 250 g ai/ha, scale 0 to 100) was 80.

`COc1nn(-c2ccc(C(F)(F)F)cc2)nc1Cc1ccnc(C(F)(F)F)c1` [Compound 15, 4-[[5-methoxy-2-[4-(trifluoromethyl)phenyl]-2H-1,2,3-triazol-4-yl]methyl]-2-(trifluoromethyl)pyridine] gave a pest or weed control at 125 g/ha [1, 8] of 90%, a pest or weed control at 500 g/ha [1, 9] of 90% and a pest or weed control at 125 g/ha [1, 10] of 100%. The pest or weed control at 500 g/ha [1, 11] was 100%, the pest or weed control at 125 g/ha [2, 12] was 100% and the pest or weed control at 500 g/ha [2, 13] was 100%. For the same molecule, the pest or weed control at 125 g/ha [2, 14] was 70%, the pest or weed control at 500 g/ha [2, 15] was 80% and the plant injury at 125 g/ha [3, 16] was 30%. The plant injury at 500 g/ha [3, 17] was 50%, the plant injury at 125 g/ha [3, 18] was 30% and the plant injury at 500 g/ha [3, 19] was 50%. It also gave a plant injury at 125 g/ha (corn (Zea mays)) of 30%, a plant injury at 500 g/ha (corn (Zea mays)) of 50% and a Corn plant response rating (crop injury, 0 = no effect, 100 = complete kill) at 125 g/ha (corn (Zea mays)) of 20%. For the same molecule, the Corn plant response rating (crop injury, 0 = no effect, 100 = complete kill) at 500 g/ha (corn (Zea mays)) was 50%, the “Plant response rating, Wheat” value [4, 31] was 15 and the “Plant response rating, Wheat” value [4, 20] was 25. For the same molecule, the “Plant response rating, Wheat” value [4, 21] was 35, the “Plant response rating, Wheat” value [4, 22] was 35 and the “Plant response rating, Wheat” value [4, 32] was 0. For the same molecule, the “Plant response rating, Wheat” value [4, 24] was 10, the “Plant response rating, Wheat” value [4, 25] was 25 and the “Plant response rating, Wheat” value [4, 26] was 50. The “Plant response rating, Nutsedge, Yellow” value [5, 31] was 0, the “Plant response rating, Nutsedge, Yellow” value [5, 20] was 0 and the “Plant response rating, Nutsedge, Yellow” value [5, 21] was 0. The “Plant response rating, Nutsedge, Yellow” value [5, 22] was 0, the “Plant response rating, Nutsedge, Yellow” value [5, 32] was 0 and the “Plant response rating, Nutsedge, Yellow” value [5, 24] was 0. The “Plant response rating, Nutsedge, Yellow” value [5, 25] was 0, the “Plant response rating, Nutsedge, Yellow” value [5, 26] was 10 and the “Plant response rating, Pigweed” value [6, 31] was 5. The “Plant response rating, Pigweed” value [6, 20] was 60, the “Plant response rating, Pigweed” value [6, 21] was 70 and the “Plant response rating, Pigweed” value [6, 22] was 90. The “Plant response rating, Pigweed” value [6, 32] was 98, the “Plant response rating, Pigweed” value [6, 24] was 100 and the “Plant response rating, Pigweed” value [6, 25] was 100. For the same molecule, the “Plant response rating, Pigweed” value [6, 26] was 100, the “Plant response rating, Chickweed” value ([7]; 16 g ai/ha, scale 0 to 100, 0 no effect, 100 complete control) was 55 and the “Plant response rating, Chickweed” value [7, 28] was 55. For the same molecule, the “Plant response rating, Chickweed” value [7, 29] was 70 and the “Plant response rating, Chickweed” value [7, 30] was 75.
